Results taken from patent US4654342A, “6-(cyanoguanidinophenyl)pyridazinones as cardiac stimulants” (Smith Kline & French Laboratories Ltd., priority 1984, dated 1987).
Where two headings read alike, the source gives them in different places.

Columns and labels:
[1] = system: 2-pyridylethylamine-induced bronchoconstriction; assay: Bronchodilatation in vivo, 2-pyridylethylamine-induced bronchoconstriction; set-up: species or system guinea-pigs (Dunkin Hartley); conditions: i.v. bolus one minute before challenge
Procedure: Male guinea-pigs of the Dunkin Hartley strain (530 g±6 g) were anaesthetised with Sagatal (pentobarbital sodium) (90 mg/kg i.p.). Airway resistance was measured using a modification of the classical Konzett-Rossler technique (Versuchsanordnung zu Untersuchungen an der Bronchialmuskulatur. Naunyn-Schmiedebergs Arch. Exp. Path. Pharmak., 30: pp 121-145, (1940)). A dose of 2-pyridylethylamine which gave approximately 100% increase in airway resistance was selected for i.v. administration. Bolus doses of the compound of Example 1 were administered (i.v.) one minute before the 2-pyridylethylamine challenge.

[2] = system: left ventricular dp/dt max; assay: Cardiac stimulant activity in vivo, anaesthetised cats (left ventricular dp/dt max); set-up: species or system cat; key to Relative Duration: ***: long; **: medium; *: short
Description: The dose to increase left ventricular dp/dt max by 50% is given as the ED50.

platelets = assay: Platelet aggregation inhibition in vitro (platelet rich plasma); format: cell-based, normal healthy volunteers (human)
Procedure: Plasma was prepared as follows. Blood from 6 normal healthy volunteers was mixed with 3.8% w/v trisodium citrate (9 parts blood: 1 part citrate). The samples were centrifuged at 150 g for 10 minutes and the supernatant platelet rich plasma (PRP) was removed. The platelet concentration in the PRP was adjusted to 300±50×10^9 /1 platelets with autologous platelet poor plasma.
25 μl aliquots of a 40 μg/ml solution of the compound of Example 1 were incubated with 225 μl aliquots of PRP in a Payton Aggregometer for 3 minutes. Control solutions, one matched to the test solution with respect to solution pH and tonicity, and another of 0.9% w/v NaCl were also studied. After 3 minutes 25 μl aliquots of adenosine diphosphate solution at a concentration of 20 μm were added to each solution. The aggregation response was recorded until complete with a maximum of 3 minutes. The procedure was repeated using as different aggregation agents: 100 μg collagen; 100 μm adrenaline or 5 mg/ml arachidonic acid instead of adenosine diphosphate.
The aggregation responses induced by the different aggregation agents were measured for the platelets from each donor. The results were assessed by visual examination of the aggregation tracing produced by the Payton aggregometer and semi-quantitatively assessed by measurement of the light transmission 3 minutes after adding the inducing agent.
Serial dilutions of this compound were prepared and tested for inhibition of adenosine diphosphate induced aggregation.

right ventricular strips = assay: Cardiac stimulant activity in vitro, guinea pig ventricular strips (force of contraction); conditions: Cavia porcellus, 50% increase in force of contraction; guinea pig ventricular strips; read-out: EC50 × 10^-6 M
Procedure: The compounds of formula (I) and their pharmaceutically acceptable salts are tested for cardiac stimulant activity following a procedure based on that of S. C. Verma and J. H. McNeill (J.Pharm & Exp. Therapeutics, 200, 352-362 (1977)). Guinea pigs (500-700 g) of either sex are sacrificed and the hearts are quickly removed and transferred to a dissecting dish containing oxygenated bathing fluid. While in the bathing medium, the right ventricle is cut into two strips. The strips are each suspended in a 50 ml bath containing Krebs Henseleit solution at 37° C., and the bath is bubbled with 95% oxygen and 5% carbon dioxide. The ventricular strips are electrically stimulated at a frequency of 1.0 Hz, at double the threshold voltage. A resting tension of 1.0 g is applied to the strips and the tension is kept constant by readjustment during an equilibration period of 60 minutes. The bathing fluid is frequently changed during this period. When a steady base line is obtained, a compound under test is added to the bathing fluid and a cumulative concentration response curve is plotted. The compounds for use in the present invention which were tested gave a 50% increase in the force of contraction of the ventricular strips at concentrations in the bathing fluid of less than 10^-4 molar, thus showing that they have activity as positive inotropic agents.

[3] = system: left ventricular dp/dt max; assay: Cardiac stimulant activity in vivo, conscious dogs (left ventricular dp/dt max); set-up: species or system dog; conditions: for minimal effective dose: Canis lupus familiaris
Procedure: Oral administration caused positive inotropic responses at doses of 0.25 mg/kg and below. […] Therefore this compound is particularly beneficial with regard to `force-rate` selectivity.

hindquarters blood flow = assay: Vasodilator activity, anaesthetised rat hindquarters autoperfused at constant blood pressure; format: in vivo
Description: The dose to increase hindquarters blood flow by 50% was 4.6 μmol/Kg.

[4] = i.v., anaesthetised rat hindquarters

In the case of `CNC(=NC#N)Nc1ccc(C2=NNC(=O)CC2C)cc1` (stereo not drawn) [Example 1, 6-[4-(N^3 -Methyl-N^2-cyanoguanidino)phenyl]-5-methyl-4,5-dihydro-3(2H)-pyridazinone], the ED50 ([1]; Cavia porcellus, iv, read-out: ED50, dose which reduced the 2-pyridylethylamine bronchoconstriction by 50%) is reported as 0.39 µmol/kg, the minimal effective dose ([1]; Cavia porcellus, read-out: threshold dose) is reported as 0.0316 µmol/kg and the “effect on 2-pyridylethylamine-induced bronchoconstriction” value [1] is reported as “reduced the 2-pyridylethylamine-induced bronchoconstriction”. For the same compound, the ED50 ([2]; Felis catus, intravenous, dose to increase left ventricular dp/dt max by 50%, anaesthetised cats) was 0.2 µmol/kg, the “Relative Duration” value ([2]; estimated in anaesthetised cats following i.v. administration) was “***” and the IC100 (platelets; Homo sapiens, Platelet, adenosine diphosphate induced aggregation, serial dilutions, read-out: concentration completely inhibiting second wave aggregation) was at least 0.5 µg/mL. The “inhibition of platelet aggregation induced by adenosine diphosphate” value (platelets; final concentrations of 5 μg/ml, adenosine diphosphate) was “inhibited platelet aggregation”, the “inhibition of platelet aggregation induced by adrenaline” value (platelets; final concentrations of 5 μg/ml, adrenaline) was “inhibited platelet aggregation” and the “inhibition of platelet aggregation induced by arachidonic acid” value (platelets; final concentrations of 5 μg/ml, arachidonic acid) was “inhibited platelet aggregation”. The “inhibition of platelet aggregation induced by collagen” value (platelets; final concentrations of 5 μg/ml, collagen) was “inhibited platelet aggregation”, the EC50 (right ventricular strips) was 1.4 µM and the “changes in blood pressure or heart rate” value [3] was “without changes in blood pressure or heart rate”. The minimal effective dose ([3]; intravenous, read-out: dose increasing left ventricular dp/dt max) was under 0.1 mg/kg, the minimal effective dose ([3]; oral, read-out: dose causing positive inotropic responses) was at most 0.25 mg/kg and the “persistence of positive inotropic responses” value ([3]; persisted for up to) was 9 to 12 h. The ED (50% increase in hindquarters blood flow) (hindquarters blood flow; Rattus norvegicus, iv, anaesthetised rat, read-out: dose to increase hindquarters blood flow by 50%) was 4.6 µmol/kg, the “dose range of dose-dependent vasodilatation” value (hindquarters blood flow; [4]) was 1 to 10 µmol/kg and the duration of activity (hindquarters blood flow; [4]) was “significant duration of activity”.
